Results taken from patent US10640492B2, “Tubulin inhibitor” (SHENZHEN NEPTUNUS PHARMACEUTICAL RESEARCH INSTITUTE CO., …, priority 2016, dated 2020).

Tests used:
[1] = test system: blood flow distribution in tissues and tumor tissue; test: Blood flow distribution of tissues and tumor; assay type: in vivo, nude mice; settings: two hours after administration, same pharmacodynamic dose, vs blank vehicle
Excerpt: In this example, the effects of drugs on blood flow distribution of different tissues and organs at the same pharmacodynamic dose were simultaneously tested.

[2] = test system: drug-resistant MES-SA cells (p-glycoprotein induced); test: Inhibitory effect on tumor proliferation, drug-resistant MES-SA transplanted tumor; assay type: in vivo; settings: drug-resistant MES-SA nude mice, dose that does not reduce body weight, vs blank vehicle (FIG. 1)
Procedure: MES-SA cells (derived from ATCC) were cultured in low concentration of adriamycin for a long time to maintain sufficient cell viability and induced the expression of p-glycoprotein. After culturing for 10 months, the results of induced expression were detected by WB. After successful induction, the cells were cultured for one week in adriamycin-free medium. The tumor cells with adjusted concentration were inoculated into the armpit of nude mice. The transplanted tumors were treated with different drugs when they grew to a certain volume. Different doses of different drugs were administrated to blank mice to explore the drug dose not affecting the body weight of the animals, namely the dose to be administrated to treat the animals with transplanted tumors.

[3] = test system: HT-1080 human fibrosarcoma cell strain
Procedure: (§1) To test the cytotoxic IC50 values of 14 candidate compounds against 5 cell strains (MDA-MB-231, HT-1080, AGS, A-673 & HUVEC) using a CCK-8 test kit.
(§2) a) The compound was serially diluted with DMSO starting from 0.5 μM, using twice echelon dilution.
(§3) The logarithmic growth phase cells were collected and counted. The cells were re-suspended in complete medium, whose concentration was adjusted according to the test results of the cell density optimization, and then seeded into 96-well plates with 100 μl of the cell suspension to each well. The cells were incubated in a 37° C., 100% relative humidity, 5% CO2 incubator for 24 hours.
(§4) b) The test compound was diluted with the medium to the corresponding action concentrations set up, and added into the cells in the plates at 25 μl/well. The test compound was prepared in 9 final action concentrations, which were obtained by sequentially diluted from 500 nM using twice echelon dilution.
(§5) c) The cells were incubated in a 37° C., 100% relative humidity, 5% CO2 incubator for 72 hours.
(§6) d) The medium was removed from the cells, and a complete medium containing 10% CCK-8 was added and incubated in a 37° C. incubator for 1-4 hours.
(§7) e) After gentle shaking, the absorbance at 450 nm of the sample was measured on a SpectraMax M5 Microplate Reader, and the inhibition ratio was calculated using the absorbance at 650 nm as reference.
(§8) The inhibition ratio of the drug on tumor cell growth was calculated as follows: tumor cell growth inhibition %=[(Ac−As)/(Ac−Ab)]×100%
(§9) The IC50 curve was fitted and the IC50 value was calculated using the software Graphpad Prism 5 and using the calculation formula log(inhibitor) vs. normalized response-variable slope or log(inhibitor) vs. response-variable slope.

[4] = test system: A-673 human rhabdomyosarcoma cell strain
Procedure: as §1, §2, §3, §4, §5, §6, §7, §8, §9

[5] = test system: MDA-MB-231 human breast cancer cell strain
Procedure: as §1
MDA-MB-231 human breast cancer cell strain (purchased from Shanghai Cell Resource Center, Chinese Academy of Sciences)
as §2, §3, §4, §5, §6, §7, §8, §9

[6] = Stability investigation (10-day accelerated stress testing)
Procedure: The tested conditions included 40° C., 60° C., humidity 75%, humidity 92.5%, and light. And under each condition, moisture, purity, maximum single impurity and total impurity of the compound tested were compared to that of day 0.

[7] = test system: HUVEC human umbilical vein endothelial cell strain
Procedure: HUVEC human umbilical vein endothelial cell strain (purchased from ScienCell Research Laboratories, Cat #8000, Lot #11233)
as §2, §3, §4, §5, §6, §7, §8, §9

neutrophil count = settings: rat, in vivo
Excerpt: Multiple doses of different drugs were administrated to the nude mice respectively and the potency of the drugs in inhibiting the transplanted tumor in the nude mice was investigated. Base on the investigation, the equivalent dose of each drug was identified and converted to rat dose before administrated to the rats. That is, by administrating the rats with relatively equivalent pharmacodynamic dose, the effect of the drugs on the neutrophil count was examined. After continuously administration for two weeks, blood samples were collected and neutrophil counts were measured (FIG. 3).

[8] = test system: AGS human gastric adenocarcinoma cell strain
Procedure: AGS human gastric adenocarcinoma cell strain (purchased from Shanghai Cell Resource Center, Chinese Academy of Sciences)
as §2, §3, §4, §5, §6, §7, §8, §9

For `C=CC(C)(C)c1[nH]cnc1/C=C1\NC(=O)[C@H](Cc2ccccc2)NC1=O` [(−)phenylahistin, reference compound], the “distribution of blood flow in tissues except tumor tissues” value [1] was “did not significantly affect the distribution of blood flow in tissues except tumor tissues”, the “intratumoral blood flow distribution” value [1] was “can significantly reduce the intratumoral blood flow distribution” and the “anti-tumor proliferation effect (tumor weight)” value [2] was “almost had no effect against tumor proliferation”. For the same compound, the IC50 [3] was greater than 600 nM, the IC50 [4] was greater than 600 nM and the IC50 [5] was greater than 600 nM. For the same compound, the Content ([6]; 40° C., day 5) was 97.86%, the Maximum single impurity ([6]; 40° C., day 5) was 0.73 RRT: 0.58) % and the Content ([6]; 40° C., day 10) was 98.36%. The Maximum single impurity ([6]; 40° C., day 10) was 1.22 (RRT: 0.58) %, the Content ([6]; 60° C., day 5) was 95.77% and the Maximum single impurity ([6]; 60° C., day 5) was 2.84 (RRT: 0.24) %. For the same compound, the Content ([6]; 60° C., day 10) was 93.45%, the Maximum single impurity ([6]; 60° C., day 10) was 3.97 (RRT: 0.24) % and the Content ([6]; Day 0) was 99.37%. For the same compound, the Maximum single impurity ([6]; Day 0) was 0.39 (RRT: 0.58) %, the IC50 [7] was greater than 600 nM and the neutrophil count (neutrophil count) was “significantly lower than blank vehicle group”. For the same compound, the IC50 [8] was greater than 600 nM.
